Paper PMC12166061, “Crystallographic fragment screening reveals ligand hotspots in TRIM21 PRY-SPRY domain” (Communications Chemistry, 2025)
Read-outs that look alike come from different tables or passages of the source. Values belong to the molecule of their own block, whether it stands above or below them.

Legend:
[1] = target: T1, full-length hTRIM21 with C-terminal NanoLuc fusion (Homo sapiens, UniProt P19474); conditions: for cell permeability: inferred from intact versus lysed NanoBRET; for tracer displacement: compound at 500 µM, NanoBRET
Description: (§4) Full-length hTRIM21 with N- or C-terminal NanoLuc fusion was transfected into HEK293T cells (ATCC) using Fugene 4K (Promega, Cat. No. E5911) transfection reagent according to the manufacturer’s instructions. Following protein expression for 24 h, cells were split again in OptiMEM medium (phenol red free, Life Technologies) to a final amount of 2 × 10^5 cells per mL and 10 µL per well were distributed in a 384 well plate. Next, tracer AL244 (2) was added in concentrations from 3 µM to 6 nM. […] Then, cells were permeabilized through the addition of 25 nL Digitonin (0.05 µg µL^−1). Following another 5-min incubation, filtered luminescence was measured again. The data acquired in the tracer titration was converted into mBRET units (Fluorescence intensity at 610 nm / Luminescence intensity at 450 nm) × 1000 and graphed using Graph-Pad Prism v.9 software.
(§5) A 384-well plate with cells expressing hTRIM21-NLuc was prepared as described above. […] Then, cells were permeabilized with Digitonin and, following 5 min of incubation, filtered luminescence was measured. The data acquired in the competition experiments were converted to mBRET units, then normalized to the positive and negative control and graphed using Graph-Pad Prism v.9 software using a normalized three-parameter curve fit using the following equation: y = 100/[1 + 10(x − logIC50)].

[2] = target: T1, full-length hTRIM21 with C-terminal NanoLuc fusion; experiment: cell-based; conditions: tracer AL244 (2)
Description: as §4, §5

His-mTRIM21 PRYSPRY = target: T2, His-mTRIM21 PRYSPRY (Mus musculus, UniProt Q62191); experiment: SPR fragment screening and dose response, mouse TRIM21 PRY-SPRY; assay type: binding
T2 construct: mouse TRIM21 PRY-SPRY domain (residues V291-M470, UniProt-ID: Q62191); made in house; host or cells: E. coli BL21(DE3)
T2 sequence (Q62191 291-470): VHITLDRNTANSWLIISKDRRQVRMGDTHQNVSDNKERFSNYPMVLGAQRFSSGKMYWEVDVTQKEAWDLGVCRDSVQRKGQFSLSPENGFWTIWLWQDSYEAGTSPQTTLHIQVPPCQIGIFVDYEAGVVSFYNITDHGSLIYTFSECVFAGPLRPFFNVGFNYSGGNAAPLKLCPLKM
Description: (§1) His-mTRIM21 PRYSPRY and His-SUMO-hTRIM21 PRY-SPRY were immobilized onto flow channels (FC) FC2, FC3, and FC4 of a Series S sensor chip NTA (Cytiva). […] Proteins (10–20 µg mL^−1 in HBS-P+) were injected at 10 µL min^−1 to achieve response levels of 3500–4300 RU for mTRIM21 and 3600–4000 RU for hTRIM21. Flow channel 1 (FC1) was used as a reference surface. Surface deactivation and nickel stripping were achieved using 1 M ethanolamine and 350 mM ethylenediaminetetraacetic acid (EDTA), respectively.
(§2) Fragment screening was conducted by injecting 500 µM fragments diluted in running buffer (HBS-P+ with 1 mM TCEP and 2% (v/v) dimethyl sulfoxide (DMSO)) over all flow-channels for 30 s at 30 µL/min^−1. To account for surface drift, 50 µM of a control compound (Suramin) was injected every 15 fragment injections, and blank injections were performed every 5 fragments. Responses were analyzed by blank subtraction, reference subtraction (FC1), solvent correction, molecular weight adjustment, and drift correction using Biacore T200 Evaluation Software v3.2.1. The binding threshold for fragment hits was set based on the Suramin-binding response level.
The data was solvent-corrected, reference-subtracted (FC1), and blank-subtracted using the T200 Evaluation Software v3.2.1. Sensorgrams were subsequently replotted using Graphpad v.9 software.

TRIM21 PRY-SPRY domain = experiment: DSF ΔTm of control suramin, species not stated; assay type: binding; conditions: at the screening concentration
Description: (§3) Briefly, recombinant murine and human TRIM21 PRY-SPRY domain at a concentration of 8 μM were mixed with 2 mM compound in their respective SEC buffer. SYPRO Orange (5000×, Invitrogen) was added as a fluorescence probe (1 µl per mL). Subsequently, temperature-dependent protein unfolding profiles were measured using the QuantStudio™ 5 realtime PCR machine (Thermo Fisher). Excitation and emission filters were set to 465 nm and 590 nm, respectively. The temperature was raised with a step rate of 3 °C per minute. Data points were analysed with the internal software (Thermal Shift SoftwareTM Version 1.4, Thermo Fisher) using the Boltzmann equation to determine the inflection point of the transition curve.

TRIM21 [3] = conditions: human TRIM21; read-out: affinity; cited from earlier work
TRIM21 [4] = conditions: mouse TRIM21; read-out: affinity; cited from earlier work
[5] = target: T3, murine TRIM21 PRY-SPRY domain (Mus musculus, UniProt Q62191); experiment: Differential scanning fluorimetry (DSF, ΔTm), mouse TRIM21 PRY-SPRY domain; assay type: binding
T3 construct: mouse TRIM21 PRY-SPRY domain (residues V291-M470, UniProt-ID: Q62191); made in house; host or cells: E. coli BL21(DE3)
T3 sequence (Q62191 291-470): T2 sequence (Q62191 291-470)
Description: as §3

[6] = target: T4, human TRIM21 PRY-SPRY domain (Homo sapiens, UniProt P19474); experiment: Differential scanning fluorimetry (DSF, ΔTm), human TRIM21 PRY-SPRY domain; assay type: binding
T4 construct: Human TRIM21 PRY-SPRY domain (residues V287-I465, UniProt-ID: P19474); His6 (N, cleaved yes); SUMO (N, cleaved yes); made in house; host or cells: E. coli BL21(DE3)
Description: as §3

[7] = target: T5, His-SUMO-hTRIM21 PRY-SPRY (Homo sapiens, UniProt P19474); experiment: SPR fragment screening, human TRIM21 PRY-SPRY; assay type: binding
T5 construct: Human TRIM21 PRY-SPRY domain (residues V287-I465, UniProt-ID: P19474); made in house; host or cells: E. coli BL21(DE3)
Description: as §1, §2

T1 sequence (P19474 whole entry, the tested form may be a part): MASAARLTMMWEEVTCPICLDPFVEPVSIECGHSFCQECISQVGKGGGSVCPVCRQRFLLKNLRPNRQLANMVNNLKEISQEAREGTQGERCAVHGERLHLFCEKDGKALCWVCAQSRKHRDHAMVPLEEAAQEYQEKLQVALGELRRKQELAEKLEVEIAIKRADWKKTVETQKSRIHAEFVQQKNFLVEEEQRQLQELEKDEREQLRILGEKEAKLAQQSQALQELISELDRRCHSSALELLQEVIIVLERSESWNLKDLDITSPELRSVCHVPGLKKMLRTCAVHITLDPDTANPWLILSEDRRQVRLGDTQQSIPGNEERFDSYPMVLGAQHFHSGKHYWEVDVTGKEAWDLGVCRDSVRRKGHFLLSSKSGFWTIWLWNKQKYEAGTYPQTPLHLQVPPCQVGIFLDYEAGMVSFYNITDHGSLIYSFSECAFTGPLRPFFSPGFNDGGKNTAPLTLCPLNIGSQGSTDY
T4 sequence (P19474 287-465): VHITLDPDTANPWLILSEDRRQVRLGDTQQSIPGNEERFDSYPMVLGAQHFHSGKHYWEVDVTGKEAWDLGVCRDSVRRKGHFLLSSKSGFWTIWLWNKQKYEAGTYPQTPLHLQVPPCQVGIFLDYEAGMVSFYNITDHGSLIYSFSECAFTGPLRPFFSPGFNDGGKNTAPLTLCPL
T5 sequence (P19474 287-465): as above

cell permeability [1]: high cell permeability
EC50 ([2]; NanoBRET EC50 (intact), intact (live) HEK293T cells): 0.197 µM
EC50 ([2]; NanoBRET EC50 (lysed), permeabilized (lysed mode, digitonin) cells): 0.297 µM
SMILES: CSc1cc(F)ccc1-c1ccc(C(=O)NCC2CCCCC2)c(S(C)(=O)=O)c1 [AL236 (1)]

tracer displacement [1]: no activity
SMILES: CN(CCCCNS(=O)(=O)c1ccc(N)cc1)C(=O)c1cccs1 [AL266 (4)]

SMILES: Cc1ccc(C(=O)Nc2ccc(S(=O)(=O)O)c3cc(S(=O)(=O)O)cc(S(=O)(=O)O)c23)cc1NC(=O)c1cccc(NC(=O)Nc2cccc(C(=O)Nc3cc(C(=O)Nc4ccc(S(=O)(=O)O)c5cc(S(=O)(=O)O)cc(S(=O)(=O)O)c45)ccc3C)c2)c1 [suramin]
SPR response of reference (His-mTRIM21 PRYSPRY; suramin injected at 50 µM as reference, species not stated): 100 relative RU
ΔTm shift (TRIM21 PRY-SPRY domain): 2.3 °C
Kd (TRIM21 [3]): ~10 µM
Kd (TRIM21 [4]): ~10 µM

tracer displacement [1]: displaced the tracer almost completely
cell permeability [1]: effective cell penetration
EC50 ([2]; NanoBRET EC50 (intact), intact HEK293T cells): 143 µM
EC50 ([2]; NanoBRET EC50 (lysed), lysed cells (digitonin)): 246 µM
SMILES: O=C(Nc1ccc(S(=O)(=O)Nc2ccccn2)cc1)c1ccccc1 [AL257 (3)]

Tm-shift mTRIM21 ([5]; 2 mM compound, 8 μM protein): 0.4 °C
Tm-Shift hTRIM21 ([6]; 2 mM compound, 8 μM protein): 0.6 °C
tracer displacement [1]: ~ 40%
SMILES: CCNC1CCN(c2ccncc2)CC1 [Fragment Z2065616520]

Tm-shift mTRIM21 [5]: 0 °C
Tm-Shift hTRIM21 [6]: 0.1 °C
SPR mTRIM21 (Response) (His-mTRIM21 PRYSPRY): 24.94
SPR hTRIM21 (Response) [7]: 21.66
SMILES: CN(C)C(=O)N1CCOCC12CCOC2 (stereo not shown) [Fragment Z1998104358]
